In US20190048016A1, “SUBSTITUTED BRIDGED UREA ANALOGS AS SIRTUIN MODULATORS” (GlaxoSmithKline Intellectual Property(No.2)Limited, priority 2014, published 2019):

Target: T1, SIRT1 (Homo sapiens, UniProt Q96EB6)
T1 sequence (Q96EB6 1-747): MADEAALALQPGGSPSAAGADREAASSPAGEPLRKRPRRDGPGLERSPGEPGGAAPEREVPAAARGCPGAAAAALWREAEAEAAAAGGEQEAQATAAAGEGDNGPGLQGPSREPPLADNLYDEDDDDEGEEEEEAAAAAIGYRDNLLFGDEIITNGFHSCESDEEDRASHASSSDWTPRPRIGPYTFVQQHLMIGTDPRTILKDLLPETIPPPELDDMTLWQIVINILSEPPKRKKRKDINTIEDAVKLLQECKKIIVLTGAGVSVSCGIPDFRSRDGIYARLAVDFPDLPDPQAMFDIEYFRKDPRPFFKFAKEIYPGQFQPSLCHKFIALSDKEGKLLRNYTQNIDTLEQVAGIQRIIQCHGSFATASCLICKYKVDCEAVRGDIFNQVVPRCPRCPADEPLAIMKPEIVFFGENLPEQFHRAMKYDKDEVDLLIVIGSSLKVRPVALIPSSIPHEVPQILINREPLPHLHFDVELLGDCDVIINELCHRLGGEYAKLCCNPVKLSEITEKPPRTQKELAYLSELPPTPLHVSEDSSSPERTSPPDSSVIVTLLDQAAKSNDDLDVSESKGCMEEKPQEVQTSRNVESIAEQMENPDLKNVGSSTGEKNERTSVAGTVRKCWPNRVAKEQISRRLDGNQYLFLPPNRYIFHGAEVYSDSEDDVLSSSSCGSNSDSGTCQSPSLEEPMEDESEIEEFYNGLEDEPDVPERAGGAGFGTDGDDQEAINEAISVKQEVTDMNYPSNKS
Assay: Trp mass spectrometry assay of SIRT1 activation (deacetylation of Ac-R-H-K-K(Ac)-W-NH2 peptide, OAADPR formation)
Type: biochemical
Details: Trp peptide 0.5 μM, 120 μM βNAD+, 10 nM SIRT1, 25 min, 25° C.; for Emax: 25 min, read-out: TRP MAX RESP (percent maximum fold activation relative to control = 100%)
From the text: Mass spectrometry based assays were used to identify modulators of SIRT1 activity. The TAMRA based assay utilized a peptide having 20 amino acid residues as follows: Ac-EE-K(biotin)-[…](Ac)NleSTEG-K(5TMR)-EE-NH2 (SEQ ID NO: 1), wherein K(Ac) is an acetylated lysine residue and Nle is a norleucine. The peptide was labeled with the fluorophore 5TMR (excitation 540 nm/emission 580 nm) at the C-terminus. The sequence of the peptide substrate was based on p53 with several modifications. In addition, the methionine residue naturally present in the sequence was replaced with the norleucine because the methionine may be susceptible to oxidation during synthesis and purification. The Trp based assay utilized a peptide having an amino acid residues as follows: Ac-R-H-K-K(Ac)-W-NH2 (SEQ ID NO: 2).
The Trp mass spectrometry assay was conducted as follows. 0.5 μM peptide substrate and 120 μM βNAD^+ were incubated with 10 nM SIRT1 for 25 minutes at 25° C. in a reaction buffer (50 mM HEPES pH 7.5, […], 1 mM DTT, 0.05% BSA). The SIRT1 protein was obtained by cloning the SirT1 gene into a T7-promoter containing vector, which was then expressed in BL21(DE3) bacterial cells and purified as described in further detail below. Test compound was added at varying concentrations to this reaction mixture and the resulting reactions were monitored. After the 25 minute incubation with SIRT1, 10 μL of 10% formic acid was added to stop the reaction. The resulting reactions were sealed and frozen for later mass spec analysis. The relative SIRT1 activity was then determined by measuring the amount of O-acetyl-ADP-ribose (OAADPR) formed (or, alternatively, the amount of deacetylated Trp peptide generated) by the NAD-dependent sirtuin deacetylation reaction in the presence of varying concentrations of the test compound versus control reactions lacking the test compound. The degree to which the test agent activated deacetylation by SIRT1 was expressed as EC1.5 (i.e., the concentration of compound required to increase SIRT1 activity by 50% over the control lacking test compound), and Percent Maximum Activation (i.e., the maximum activity relative to control (100%) obtained for the test compound).
A control for inhibition of sirtuin activity was conducted by adding 1 μL of 500 mM nicotinamide as a negative control at the start of the reaction (e.g., permits determination of maximum sirtuin inhibition). A control for activation of sirtuin activity was conducted using 10 nM of sirtuin protein, with 1 μL of DMSO in place of compound, to determine the amount of deacetylation of the substrate at a given time point within the linear range of the assay. This time point was the same as that used for test compounds and, within the linear range, the endpoint represents a change in velocity.
For the above assay, SIRT1 protein was expressed and purified as follows. The SirT1 gene was cloned into a T7-promoter containing vector and transformed into BL21(DE3). The protein was expressed by induction with 1 mM IPTG as an N-terminal His-tag fusion protein at 18° C. overnight and harvested at 30,000×g. Cells were lysed with lysozyme in lysis buffer (50 mM Tris-HCl, 2 mM Tris[2-carboxyethyl] phosphine (TCEP), 10 μM ZnCl2, 200 mM NaCl) and further treated with sonication for 10 min for complete lysis. The protein was purified over a Ni-NTA column (Amersham) and fractions containing pure protein were pooled, concentrated and run over a sizing column (Sephadex S200 26/60 global). The peak containing soluble protein was collected and run on an Ion-exchange column (MonoQ). Gradient elution (200 mM-500 mM NaCl) yielded pure protein. This protein was concentrated and dialyzed against dialysis buffer (20 mM Tris-HCl, 2 mM TCEP) overnight. The protein was aliquoted and frozen at −80° C. until further use.
Sirtuin-modulating compounds of Formula (I) that activated SIRT1 were identified using the assay described above and are shown below in Table 1. […]

Row | Compound | Emax [%] | TRP Activity (EC1.5, concentration of compound required to increase SIRT1 activity by 50% over control)
1 | COc1cncc(NC(=O)N2c3nc(-c4ccnc(C)c4)ccc3N3CCC[C@H]2C3)n1 [Example 20, (9S)-N-(6-methoxypyrazin-2-yl)-2-(2-methylpyridin-4-yl)-8,9-dihydro-6H-5,9-methanopyrido[2,3-b][1,4]diazocine-10(7H)-carboxamide] | ≥ 150 | A (EC1.5<1 μM)
2 | Cc1cc(-c2ccc3c(n2)N(C(=O)Nc2cncc(C)n2)[C@H]2CCCN3C2)ccn1 [Example 21] | ≥ 150 | B (EC1.5 1-25 μM)
3 | Cc1cc(-c2ccc3c(n2)N(C(=O)Nc2cnn(C)c2)[C@H]2CCCN3C2)ccn1 [Example 26, (9S)-N-(1-methyl-1H-pyrazol-4-yl)-2-(2-methylpyridin-4-yl)-8,9-dihydro-6H-5,9-methanopyrido[2,3-b][1,4]diazocine-10(7H)-carboxamide] | ≥ 150 | B (EC1.5 1-25 μM)
4 | Cc1cc(-c2ccc3c(n2)N(C(=O)Nc2cccnc2)[C@H]2CCCN3C2)ccn1 [Example 32, (9S)-2-(2-methylpyridin-4-yl)-N-(pyridin-3-yl)-8,9-dihydro-6H-5,9-methanopyrido[2,3-b][1,4]diazocine-10(7H)-carboxamide] | ≥ 150 | A (EC1.5<1 μM)
5 | O=C(NC1CC1)c1nc2c(cc1Cl)N1CCC[C@@H](C1)N2C(=O)Nc1ccccn1 [Example 33, (9S)-3-chloro-N2-cyclopropyl-N10-(pyridin-2-yl)-8,9-dihydro-6H-5,9-methanopyrido[2,3-b][1,4]diazocine-2,10(7H)-dicarboxamide] | ≥ 150 | B (EC1.5 1-25 μM)
6 | C[C@@H](NC(=O)c1ccc2c(n1)N(C(=O)Nc1cc(OC[C@H](O)CO)ccn1)[C@H]1CCCN2C1)C(F)(F)F [Example 34, (9S)-N10-(4-((R)-2,3-dihydroxypropoxy)pyridin-2-yl)-N2-((R)-1,1,1-trifluoropropan-2-yl)-8,9-dihydro-6H-5,9-methanopyrido[2,3-b][1,4]diazocine-2,10(7H)-dicarboxamide] | ≥ 150 | A (EC1.5<1 μM)
7 | CC(F)(F)CNC(=O)c1ccc2c(n1)N(C(=O)Nc1cc(OC[C@H](O)CO)ccn1)[C@H]1CCCN2C1 [Example 35, (9S)-N2-(2,2-difluoropropyl)-N10-(4-((R)-2,3-dihydroxypropoxy)pyridin-2-yl)-8,9-dihydro-6H-5,9-methanopyrido[2,3-b][1,4]diazocine-2,10(7H)-dicarboxamide] | ≥ 150 | A (EC1.5<1 μM)
8 | O=C(NC1CC1)c1ccc2c(n1)N(C(=O)Nc1ccccn1)[C@H]1CCCN2C1 [Example 36, (9S)-N2-cyclopropyl-N10-(pyridin-2-yl)-8,9-dihydro-6H-5,9-methanopyrido[2,3-b][1,4]diazocine-2,10(7H)-dicarboxamide] | ≥ 150 | A (EC1.5<1 μM)

Results, then the compound that gave them:

Row | Emax [%] | TRP Activity (EC1.5, concentration of compound required to increase SIRT1 activity by 50% over control) | Compound
9 | ≥ 150 | A (EC1.5<1 μM) | O=C(NCC(F)(F)F)c1ccc2c(n1)N(C(=O)Nc1ccccn1)[C@H]1CCCN2C1 [Example 37, (9S)-N10-(pyridin-2-yl)-N2-(2,2,2-trifluoroethyl)-8,9-dihydro-6H-5,9-methanopyrido[2,3-b][1,4]diazocine-2,10(7H)-dicarboxamide]
10 | ≥ 150 | A (EC1.5<1 μM) | O=C(NCC(F)(F)F)c1nc2c(cc1Cl)N1CCC[C@@H](C1)N2C(=O)Nc1ccccn1 [Example 38, (9S)-3-chloro-N10-(pyridin-2-yl)-N2-(2,2,2-trifluoroethyl)-8,9-dihydro-6H-5,9-methanopyrido[2,3-b][1,4]diazocine-2,10(7H)-dicarboxamide]
11 | ≥ 150 | A (EC1.5<1 μM) | C[C@@H](NC(=O)c1nc2c(cc1Cl)N1CCC[C@@H](C1)N2C(=O)Nc1ccccn1)C(F)(F)F [Example 39, (9S)-3-chloro-N10-(pyridin-2-yl)-N2-((R)-1,1,1-trifluoropropan-2-yl)-8,9-dihydro-6H-5,9-methanopyrido[2,3-b][1,4]diazocine-2,10(7H)-dicarboxamide]
12 | ≥ 150 | A (EC1.5<1 μM) | C[C@@H](NC(=O)c1ccc2c(n1)N(C(=O)Nc1ccon1)[C@H]1CCCN2C1)C(F)(F)F [Example 40, (9S)-N10-(isoxazol-3-yl)-N2-((R)-1,1,1-trifluoropropan-2-yl)-8,9-dihydro-6H-5,9-methanopyrido[2,3-b][1,4]diazocine-2,10(7H)-dicarboxamide]
13 | ≥ 150 | A (EC1.5<1 μM) | Cc1ccc2c(NC(=O)N3c4nc(C(=O)NCC(F)(F)F)ccc4N4CCC[C@H]3C4)n[nH]c2n1 [Example 41, (9S)-N10-(6-methyl-1H-pyrazolo[3,4-b]pyridin-3-yl)-N2-(2,2,2-trifluoroethyl)-8,9-dihydro-6H-5,9-methanopyrido[2,3-b][1,4]diazocine-2,10(7H)-dicarboxamide]
14 | ≥ 150 | A (EC1.5<1 μM) | Cc1ccc2c(NC(=O)N3c4nc(C(=O)NC5CC5)ccc4N4CCC[C@H]3C4)n[nH]c2n1 [Example 42, (9S)-N2-cyclopropyl-N10-(6-methyl-1H-pyrazolo[3,4-b]pyridin-3-yl)-8,9-dihydro-6H-5,9-methanopyrido[2,3-b][1,4]diazocine-2,10(7H)-dicarboxamide]
15 | ≥ 150 | A (EC1.5<1 μM) | Cc1ccc2c(NC(=O)N3c4nc(C(=O)N[C@H](C)C(F)(F)F)ccc4N4CCC[C@H]3C4)n[nH]c2n1 [Example 43, (9S)-N10-(6-methyl-1H-pyrazolo[3,4-b]pyridin-3-yl)-N2-((R)-1,1,1-trifluoropropan-2-yl)-8,9-dihydro-6H-5,9-methanopyrido[2,3-b][1,4]diazocine-2,10(7H)-dicarboxamide]
